Data as given in PMC10341786 (International Journal of Molecular Sciences, 2023).

Key:
in vitro [1] = conditions: pig
TBEV = assay: microbe, parasite or virus in culture; type: cell-based, Tick-borne encephalitis virus strain Absettarov; conditions: Tick-borne encephalitis virus, PEK, read-out: TBEV EC50
in vitro [2] = conditions: pig; remark: listed apart in the source
WNV = assay: microbe, parasite or virus in culture; type: cell-based, West Nile virus strain Strix nebulosa-12; conditions: West Nile virus, Vero, read-out: WNV EC50
in vitro [3] = conditions: African green monkey
in vitro [4] = conditions: African green monkey; remark: listed apart in the source
YFV = assay: microbe, parasite or virus in culture; type: cell-based, yellow fever virus strain 17D; conditions: Yellow fever virus, read-out: YFV EC50
DENV-2 = conditions: cited from earlier work
DENV-1 = conditions: cited from earlier work
DENV-3 = conditions: cited from earlier work

| Structure (SMILES) | melting point | CC50 (in vitro [1]) | EC50 (TBEV) | CC50 (in vitro [2]) | acute and chronic cytotoxicity in Vero cells (in words) (Vero cells) | EC50 (WNV) | cytotoxicity against PEK cells during 7 days of incubation (in words) (PEK cells) | CC50 (in vitro [3]) | CC50 (in vitro [4]) | EC50 (YFV) | EC50 (DENV-2) | EC50 (DENV-1) | EC50 (DENV-3) |
| --- | --- | --- | --- | --- | --- | --- | --- | --- | --- | --- | --- | --- | --- |
| O=[N+]([O-])c1ccc(S(=O)(=O)N(C2=NOC3(CCCCCCC3)C2)S(=O)(=O)c2ccc([N+](=O)[O-])cc2)cc1 [4i, 4-Nitro-N-((4-nitrophenyl)sulfonyl)-N-(1-oxa-2-azaspiro[4.7]dodec-2-en-3-yl)benzenesulfonamide] | 178 to 180 °C | > 50 µM | 2 ± 0.5 µM | > 50 µM | both acute and chronic cytotoxicity | 5.3 ± 1 µM |  |  |  |  |  |  |  |
| O=S(=O)(NC1=NOC2(CCCCCCC2)C1)c1ccc2ccccc2c1 [3j] |  | > 50 µM | 20 ± 11 µM | > 50 µM | both acute and chronic cytotoxicity | 20.3 ± 0.3 µM |  |  |  |  |  |  |  |
| O=[N+]([O-])c1ccc(S(=O)(=O)N(C2=NOC3CCCCCCC23)S(=O)(=O)c2ccc([N+](=O)[O-])cc2)cc1 (stereo not shown) [5i, 4-Nitro-N-((4-nitrophenyl)sulfonyl)-N-(3a,4,5,6,7,8,9,9a-octahydrocycloocta[d]isoxazol-3-yl)benzenesulfonamide] | 139 to 140 °C | > 50 µM | 19 ± 4 µM | 41 ± 1.8 µM |  | 19 ± 11 µM | slightly toxic | > 50 µM | > 50 µM |  |  |  |  |
| O=[N+]([O-])c1ccccc1S(=O)(=O)N(C1=NOC2(CCCCCCC2)C1)S(=O)(=O)c1ccccc1[N+](=O)[O-] [4h, 2-Nitro-N-((2-nitrophenyl)sulfonyl)-N-(1-oxa-2-azaspiro[4.7]dodec-2-en-3-yl)benzenesulfonamide] | 155 to 157 °C | > 50 µM | 20 ± 11 µM | > 50 µM | only acute toxic | 7.8 ± 1 µM |  |  |  |  |  |  |  |
| O=S(=O)(c1cccs1)N(C1=NOC2CCCCCCC12)S(=O)(=O)c1cccs1 (stereo not shown) [5k, N-(3a,4,5,6,7,8,9,9a-Octahydrocycloocta[d]isoxazol-3-yl)-N-(thiophen-2-ylsulfonyl)thiophene-2-sulfonamide] | 131 to 132 °C | > 50 µM | 20 ± 3 µM | > 50 µM | both acute and chronic cytotoxicity | 18 ± 4 µM |  |  |  |  |  |  |  |
| O=S(=O)(Cc1ccccc1)NC1=NOC2(CCCCCCC2)C1 [3b] |  | > 50 µM | 13 ± 8 µM | > 50 µM |  | 9.9 ± 1.5 µM |  | > 50 µM | > 50 µM | 24 ± 11 µM |  |  |  |
| CC(C)CCN1C(=O)[C@]2(CC(=O)Nc3c2nnn3[C@@H](C)c2ccc(Cl)cc2)c2cc(Cl)ccc21 [JMX0254] |  |  |  |  |  |  |  |  |  |  | 160 nM | 780 nM | 35 nM |
| O=S(=O)(Cc1ccccc1)N(C1=NOC2CCCCCCC12)S(=O)(=O)Cc1ccccc1 (stereo not shown) [5b, N-(Benzylsulfonyl)-N-(3a,4,5,6,7,8,9,9a-octahydrocycloocta[d]isoxazol-3-yl)-1-phenylmethanesulfonamide] | 198 to 199 °C | > 50 µM | 21.7 ± 2.8 µM | > 50 µM |  | 6.3 ± 1.2 µM |  | > 50 µM | > 50 µM |  |  |  |  |
| O=S(=O)(Cc1ccccc1)N(C1=NOC2(CCCCCCC2)C1)S(=O)(=O)Cc1ccccc1 [4b, N-(Benzylsulfonyl)-1-phenyl-N-(1-oxa-2-azaspiro[4.7]dodec-2-en-3-yl)methanesulfonamide] | 176 to 177 °C | > 50 µM | > 50 µM | > 50 µM |  | 16 ± 8 µM |  | > 50 µM | > 50 µM |  |  |  |  |
